Values of other authors as cited in patent publication US9248196B2, “Rebamipide complexes and cocrystals” (NUFORMIX LIMITED, priority 2011, dated 2016).
Read-outs that look alike come from different tables or passages of the source.

- solubility (in ethanol): very slightly soluble
- solubility (in methanol): very slightly soluble
- solubility (in water): practically insoluble
SMILES: O=C(NC(Cc1cc(=O)[nH]c2ccccc12)C(=O)O)c1ccc(Cl)cc1 (stereo not drawn) [Rebamipide, 2-(4-chlorobenzamido)-3-(2-oxo-1,2-dihydroquinolin-4-yl)propanoic acid]
